Test results published in PMC11784839, “Monoaminergic neurotransmitters are bimodal effectors of tau aggregation” (Science Advances, 2025).
“Also recorded” adds a separate entry of the source. Where two headings read alike, the source gives them in different places. *1 amine or outer side, *2 acyl side, *3 side chain or, on linkers, in order; H or OH if unused. Where a SMILES comes first, the peptide text is derived from it. Bridges are numbered along the chain shown (N, C = ends). [ ]: non-standard residue; d: D form. hTyr(3S-OH,4S-OH,3'-OSO3H) = N[C@H](C(=O)O)[C@H](O)[C@@H](O)c1ccc(O)c(OS(=O)(=O)O)c1; Orn(4R-OH,5R-OH) = O=C([C@H](C[C@@H](O)[C@@H](O)N[*:3])N[*:1])[*:2]; Pro(3S-OH,4S-Me) = C[C@H]1CN[C@H](C(=O)O)[C@H]1O; Gln(3R-OH) = NC(=O)C[C@@H](O)[C@H](N)C(=O)O; Hyp = O=C(O)[C@@H]1C[C@@H](O)CN1

Tests used:
[1] = target: T1, tau (Homo sapiens, UniProt P10636); test: Tau biosensor dose titrations (HEK293T tau biosensor cells seeded with AD brain homogenate);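 on all read-outs here: AD brain homogenate preincubated 16 h with compound, then transfected into tau biosensor cells, seeding read as tau puncta counted by imaging, normalized to cell confluence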; assay type: cell-based; conditions: for IC50: read-out: IC50 low tau load; for dose-dependent effect of NT on tau seeding: AD brain homogenate pretreated with indicated amounts of NT (Fig. 3A); for effect on seeding, extended dose series: NT concentrations tested from 25 nM to 100 µM (fig. S6)
[2] = target: T1, tau; test: MCE Phenols Library screening, tau biosensor cell seeding assay (AvZ); assay type: cell-based; conditions: for AvZ (average z score of seeding, SDs from the mean level of seeding): 10 μM phenol in cell cultures, AD brain homogenate preincubated 16 hours, two biological replicates, positive = catalyzes seeding, negative = inhibits; for Z repl 1 / Z Repl 2: Z score; for Z repl 1 / raw data 1: replicate 1; for Z Repl 2 / raw data 2: replicate 2
[3] = average Z score of the two replicates, tau seeding
[4] = average Z score of the two replicates, MCE Phenols Library screen
[5] = average puncta of the two replicates
[6] = average Z score of two replicates, Phenols Library screen
[7] = average Z score of the two replicates, tau biosensor seeding, MCE Phenols Library screen

T1 sequence (P10636 623-695 limits assumed): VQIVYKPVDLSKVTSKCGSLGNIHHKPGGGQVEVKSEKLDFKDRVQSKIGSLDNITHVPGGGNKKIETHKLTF

## NC[C@H](O)c1ccc(O)c(O)c1 [NE, norepinephrine, reference compound]
[1]; AD brain homogenate diluted to 0.11 ng/μl ptau
  IC50: > 25000 nM

## O=C(O)Cc1ccc(O)c(O)c1 [DOPAC, 3,4-dihydroxyphenylacetic acid]
[1]
  dose-dependent effect of NT on tau seeding: inhibited seeding with effects similar to DA

## Nc1ncnc2c1ncn2[C@@H]1O[C@H](CO)[C@@H](O)[C@H]1O [adenosine, reference compound]
[1]
  dose-dependent effect of NT on tau seeding: no significant inhibitory effects on tau seeding; also recorded: dose-dependently catalyzed tau seeding

## NC(Cc1cccc(O)c1)C(=O)O (racemic) [DL-m-Tyrosine]
[1]; 10 to 100 μM, AD brain homogenate seed (Fig. 2A)
  effect on seeding, concentrations ranging from 10 to 100 μM: catalyzed seeding independently of dose at all concentrations tested
[2]
  AvZ (average z score of seeding, SDs from the mean level of seeding): 1.911
  Z repl 1: 1.84
  Z Repl 2: 1.982
[2]; average of raw data 1 and 2
  av puncta: 41183.3
[2]; puncta
  raw data 1: 48433.9
  raw data 2: 33932.7

## NCCCC(=O)O [GABA, γ-aminobutyric acid]
[1]
  dose-dependent effect of NT on tau seeding: no significant inhibitory effects on tau seeding
  effect on seeding, extended dose series: No inhibitory effect

## COc1c(O)cc2oc3cc(O)c(CC=C(C)C)c(O)c3c(=O)c2c1CCC(C)(C)O [garcinone D]
[1]; 10 μM final concentration on cells, AD brain homogenate seed
  effect on seeding at 10 μM: catalyzed seeding
[1]; 50 μM final concentration on cells, AD brain homogenate seed
  effect on seeding at 50 μM: inhibited seeding
[2]; [3]
  av Z: 0.598

## CNC[C@H](O)c1ccc(O)c(O)c1 [EP, epinephrine, reference compound]
[1]
  dose-dependent effect of NT on tau seeding: inhibited seeding with the next greatest efficacy

## N[C@@H](CCC(=O)O)C(=O)O [glutamate]
[1]
  dose-dependent effect of NT on tau seeding: no significant inhibitory effects on tau seeding
  effect on seeding, extended dose series: No inhibitory effect

## CC(=O)OCC[N+](C)(C)C [acetylcholine]
[1]
  dose-dependent effect of NT on tau seeding: no significant inhibitory effects on tau seeding
  effect on seeding, extended dose series: No inhibitory effect

## N[C@H](Cc1ccc(O)c(O)c1)C(=O)O [D-dopa]
[1]; AD brain homogenate diluted to […] ptau
  IC50: 1900 nM

## OC[C@H]1O[C@@H](Oc2cc(O)cc(/C=C/c3ccc(O)cc3)c2)[C@H](O)[C@@H](O)[C@@H]1O (mixture of isomers) [(E/Z)-Polydatin]
[2]
  Z repl 1: 0.505
  Z Repl 2: -0.119
[2]; [3]
  av Z: 0.193
[2]; average of raw data 1 and 2
  av puncta: 21956.3
[2]; puncta
  raw data 1: 32412.5
  raw data 2: 11500.1

## CC1OC(OCC2OC(Oc3c(-c4ccc(O)cc4)oc4cc(OC5OC(C)C(O)C(O)C5O)cc(O)c4c3=O)C(O)C(O)C2O)C(O)C(O)C1O (stereo not drawn) [Robinin]
[2]
  Z repl 1: 0.02
  Z Repl 2: -0.843
[2]; [4]
  av Z: -0.411
[2]; [5]
  av puncta: 15180.1
[2]; raw puncta
  raw data 1: 26593.3
  raw data 2: 3766.89

## CCOC(=O)c1cc(O)c(O)c(O)c1 [Ethyl gallate]
[2]
  AvZ (average z score of seeding, SDs from the mean level of seeding): -0.79
  Z repl 1: -0.43
  Z Repl 2: -1.15
[2]; average of raw data 1 and 2
  av puncta: 10837.2
[2]; puncta
  raw data 1: 21190.3
  raw data 2: 484.087

## COc1ccc(/C=C/c2cc(O)cc(O[C@@H]3O[C@H](CO)[C@@H](O)[C@H](O)[C@H]3O)c2)cc1 [Desoxyrhaponticin]
[2]
  Z repl 1: 0.811
  Z Repl 2: -0.238
[2]; [3]
  av Z: 0.286
[2]; average of raw data 1 and 2
  av puncta: 23150.9
[2]; puncta
  raw data 1: 36082.1
  raw data 2: 10219.6

## COc1cc(CC(=O)C(=O)O)ccc1O [Vanilpyruvic acid]
[2]
  AvZ (average z score of seeding, SDs from the mean level of seeding): -0.352
  Z repl 1: 0.039
  Z Repl 2: -0.742
[2]; [5]
  av puncta: 15824.3
[2]; raw puncta
  raw data 1: 26811.5
  raw data 2: 4837.1

## COc1cc(-c2oc3cc(O)cc(O)c3c(=O)c2O[C@@H]2O[C@H](CO[C@@H]3O[C@@H](C)[C@H](O)[C@@H](O)[C@H]3O)[C@@H](O)[C@H](O)[C@H]2O[C@@H]2O[C@@H](C)[C@H](O)[C@@H](O)[C@H]2O)ccc1O [Typhaneoside]
[2]
  Z repl 1: -0.172
  Z Repl 2: -0.068
[2]; [6]
  av Z: -0.12
[2]; average of raw data 1 and 2
  av puncta: 18163.3
[2]; puncta
  raw data 1: 24283.7
  raw data 2: 12042.9

## CC(=O)c1cc(O)ccc1O [2,5-Dihydroxyacetophenone]
[2]
  AvZ (average z score of seeding, SDs from the mean level of seeding): -0.464
  Z repl 1: -0.264
  Z Repl 2: -0.663
[2]; [5]
  av puncta: 14429.3
[2]; puncta
  raw data 1: 23175.8
  raw data 2: 5682.84

## O=C1O[C@H]2[C@@H]3OC(=O)c4cc(O)c(O)c(O)c4-c4c(cc(O)c(O)c4O)C(=O)OC[C@H]2O[C@@H](OC(=O)c2cc(O)c(O)c(O)c2)[C@@H]3OC(=O)c2cc(O)c(O)c3c2[C@@H]2C1=CC(=O)[C@](O)(O3)C2(O)O [Geraniin]
[2]
  Z repl 1: -2.121
  Z Repl 2: -1.184
[2]; [4]
  av Z: -1.653
[2]; average of raw data 1 and 2
  av puncta: 501.022
[2]; puncta
  raw data 1: 880.948
  raw data 2: 121.096

## O=C(CCc1ccc(O)cc1)c1c(O)cc(O)cc1O [Phloretin]
[2]
  Z repl 1: -0.858
  Z Repl 2: -0.477
[2]; [4]
  av Z: -0.667
[2]; [5]
  av puncta: 11860.9
[2]; puncta
  raw data 1: 16053.8
  raw data 2: 7668.02

## O=c1cc(-c2ccc(O)cc2)oc2cc(O)c([C@@H]3O[C@H](CO)[C@@H](O)[C@H](O)[C@H]3O[C@@H]3O[C@H](CO)[C@@H](O)[C@H](O)[C@H]3O)c(O)c12 [Meloside A]
[2]
  Z repl 1: -1.304
  Z Repl 2: -0.878
[2]; [4]
  av Z: -1.091
[2]; average of raw data 1 and 2
  av puncta: 7038.23
[2]; puncta
  raw data 1: 10691.8
  raw data 2: 3384.65

## O=C(O)c1cc(O)c2cccc(O)c2n1 [Xanthurenic acid]
[2]
  Z repl 1: 0.734
  Z Repl 2: 1.586
[2]; [7]
  av Z: 1.16
[2]; average of raw data 1 and 2
  av puncta: 32429.6
[2]; puncta
  raw data 1: 35156.1
  raw data 2: 29703.1

## CC(C)=CCc1cc(C(=O)/C=C/c2ccc(O)cc2)c(O)cc1O [Bavachalcone]
[2]
  Z repl 1: -0.876
  Z Repl 2: -0.134
[2]; [4]
  av Z: -0.505
[2]; [5]
  av puncta: 13584.6
[2]; puncta
  raw data 1: 15835.9
  raw data 2: 11333.2

## COc1cc(O)c2c(=O)cc(-c3ccccc3)oc2c1 [Tectochrysin]
[2]
  Z repl 1: 0.481
  Z Repl 2: -0.371
[2]; [6]
  av Z: 0.055
[2]; average of raw data 1 and 2
  av puncta: 20458.8
[2]; puncta
  raw data 1: 32119.1
  raw data 2: 8798.38

## COc1ccc2cc3[n+](cc2c1O)CCc1cc2c(cc1-3)OCO2.[Cl-] [Berberrubine (chloride)]
[2]
  Z repl 1: 0.031
  Z Repl 2: -0.189
[2]; [6]
  av Z: -0.079
[2]; average of raw data 1 and 2
  av puncta: 18734.2
[2]; puncta
  raw data 1: 26719.5
  raw data 2: 10748.8

## COc1cc(O)c2c(=O)c3c(O[C@@H]4O[C@H](CO)[C@@H](O)[C@H](O)[C@H]4O)ccc(O)c3oc2c1 [Swertianolin]
[2]
  Z repl 1: -0.114
  Z Repl 2: 0.052
[2]; [6]
  av Z: -0.031
[2]; average of raw data 1 and 2
  av puncta: 19147.5
[2]; puncta
  raw data 1: 24974.7
  raw data 2: 13320.3

## COc1c(/C=C/C(=O)c2ccc(O)c(CC=C(C)C)c2)ccc(O)c1O [Licochalcone D]
[2]
  Z repl 1: 0.138
  Z Repl 2: 0.907
[2]; [3]
  av Z: 0.523
[2]; average of raw data 1 and 2
  av puncta: 25231
[2]; puncta
  raw data 1: 28009.4
  raw data 2: 22452.6

## O=c1c(O)c(-c2ccccc2)oc2cc(O)cc(O)c12 [Galangin]
[2]
  Z repl 1: 0.212
  Z Repl 2: -0.203
[2]; [6]
  av Z: 0.004
[2]; average of raw data 1 and 2
  av puncta: 19744.8
[2]; puncta
  raw data 1: 28893.6
  raw data 2: 10595.9

## O=C(O)CC(=O)OC[C@H]1O[C@@H](Oc2c(-c3ccc(O)c(O)c3)oc3cc(O)cc(O)c3c2=O)[C@H](O)[C@@H](O)[C@@H]1O
[2]
  Z repl 1: -0.599
  Z Repl 2: -0.958
[2]; [4]
  av Z: -0.779
[2]; average of raw data 1 and 2
  av puncta: 10843.5
[2]; puncta
  raw data 1: 19152.5
  raw data 2: 2534.57

## COc1cc(O)cc(/C=C/c2ccc(O)cc2)c1 [Pinostilbene]
[2]
  Z repl 1: 0.091
  Z Repl 2: -0.704
[2]; [4]
  av Z: -0.306
[2]; [5]
  av puncta: 16345.6
[2]; raw puncta
  raw data 1: 27446.2
  raw data 2: 5245.02

## O=C1C[C@@H](c2ccc(O)cc2)Oc2cc(O[C@@H]3O[C@H](CO)[C@@H](O)[C@H](O)[C@H]3O)ccc21 [Neoliquiritin]
[2]
  Z repl 1: -0.356
  Z Repl 2: -0.555
[2]; [4]
  av Z: -0.455
[2]; [5]
  av puncta: 14458.7
[2]; puncta
  raw data 1: 22080.4
  raw data 2: 6836.97

## C[C@@H](O)[C@@H]1NC(=O)[C@@H](N)C[C@@H](O)[C@@H](O)NC(=O)[C@@H]2[C@@H](O)[C@@H](C)CN2C(=O)[C@H]([C@H](O)CC(N)=O)NC(=O)[C@H]([C@H](O)[C@@H](O)c2ccc(O)c(OS(=O)(=O)O)c2)NC(=O)[C@@H]2C[C@@H](O)CN2C1=O [FR179642] (H-[Orn(4R-OH,5R-OH)]T[Hyp][hTyr(3S-OH,4S-OH,3'-OSO3H)][Gln(3R-OH)][Pro(3S-OH,4S-Me)]; lactam 1-C)
[2]
  Z repl 1: 1.095
  Z Repl 2: 0.887
[2]; [7]
  av Z: 0.991
[2]; average of raw data 1 and 2
  av puncta: 30866.7
[2]; puncta
  raw data 1: 39497.8
  raw data 2: 22235.7

## Echinacoside
[2]
  Z repl 1: 0.125
  Z Repl 2: -0.609
[2]; [4]
  av Z: -0.242
[2]; [5]
  av puncta: 17056.9
[2]; raw puncta
  raw data 1: 27847.2
  raw data 2: 6266.63

## COc1cc(CNC(=O)CCCC/C=C/C(C)C)ccc1O [Capsaicin, reference compound]
[2]
  AvZ (average z score of seeding, SDs from the mean level of seeding): -0.318
  Z repl 1: 0.025
  Z Repl 2: -0.661
[2]; [5]
  av puncta: 16179.6
[2]; raw puncta
  raw data 1: 26653.4
  raw data 2: 5705.75
